US8536202B2, “Triazole-substituted anthranilamides as pesticides” (Bayer Cropscience AG, priority 2010, dated 2013)

Columns and labels:
[1] = system: green peach aphid (Myzus persicae); assay: Myzus test (MYZUPE spray treatment), Use Example 4; type: in vivo; conditions: 144 h, 100 g/ha, after 6 days, read-out: activity in %
Protocol: Solvents: 78 parts by weight of acetone • • 1.5 parts by weight of dimethylformamide
Emulsifier: 0.5 part by weight of alkylaryl polyglycol ether
An appropriate preparation of active compound is prepared by mixing 1 part by weight of active compound with the stated amounts of solvents and emulsifier and diluting the concentrate with emulsifier-containing water to the desired concentration.
Leaf discs of Chinese cabbage (Brassica pekinensis) infested by all stages of the green peach aphid (Myzus persicae) are sprayed with a preparation of active compound at the desired concentration.
After 6 days, the activity in % is ascertained. Here, 100% means that all of the aphids have been killed; 0% means that no aphids have been killed.

[2] = system: larvae of the mustard beetle (Phaedon cochleariae); assay: Phaedon test (PHAECO spray treatment); type: in vivo; conditions: 168 h, 100 g/ha, after 7 days, read-out: activity in %
In short: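 Compound dissolved in acetone/dimethylformamide with alkylaryl polyglycol ether emulsifier, then diluted with emulsifier-containing water to test concentration for spray treatment of Phaedon cochleariae larvae. Activity scored after 7 days as % larvae killed (100% = all dead, 0% = none).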

[3] = system: caterpillars of the armyworm (Spodoptera frugiperda); assay: Spodoptera frugiperda test (SPODFR spray treatment); type: in vivo; conditions: 168 h, 100 g/ha, after 7 days, read-out: activity in %
In short: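 Maize leaf discs sprayed with compound diluted in emulsifier-containing water (acetone/DMF solvent, alkylaryl polyglycol ether emulsifier), dried, then infested with armyworm caterpillars. Kill scored after 7 days as % mortality, 100% = all caterpillars dead, 0% = none.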

[4] = log P determination by HPLC on reversed-phase columns (EEC Directive 79/831 Annex V.A8); type: physicochemical; conditions: pH 2.7
In short: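 log P from reversed-phase LC-MS retention at pH 2.7, 0.1% formic acid water/acetonitrile gradient 10–95% acetonitrile. Calibrated against C3–C16 unbranched alkan-2-ones, interpolating linearly between adjacent alkanones.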

Cc1cc(C#N)cc(C(=O)NCC#N)c1NC(=O)c1cc(Cn2ncc(C(F)(F)F)n2)nn1-c1ncccc1Cl [Example 132]
pest or weed control at 100 g/ha [1]: 100% | pest or weed control at 100 g/ha [2]: 100% | pest or weed control at 100 g/ha [3]: 100% | chromatographic logP [4]: 2.76

CSC[C@H](C)NC(=O)c1cc(C#N)cc(C)c1NC(=O)c1cc(Cn2ncc(C(F)(F)F)n2)nn1-c1ncccc1Cl [Example 133]
pest or weed control at 100 g/ha [1]: 90% | pest or weed control at 100 g/ha [2]: 100% | pest or weed control at 100 g/ha [3]: 100% | chromatographic logP [4]: 3.33

Cc1cc(Cl)cc(C(=O)NC2CC2)c1NC(=O)c1cc(Cn2ncc(C(F)(F)F)n2)nn1-c1ncccc1Cl [Example 137]
pest or weed control at 100 g/ha [1]: 100% | pest or weed control at 100 g/ha [2]: 100% | pest or weed control at 100 g/ha [3]: 100% | chromatographic logP [4]: 3.18

Cc1cc(Cl)cc(C(=O)NC(C)C)c1NC(=O)c1cc(Cn2ncc(C(F)(F)F)n2)nn1-c1ncccc1Cl [Example 139]
pest or weed control at 100 g/ha [1]: 90% | pest or weed control at 100 g/ha [2]: 100% | pest or weed control at 100 g/ha [3]: 100% | chromatographic logP [4]: 3.48

Cc1cc(Cl)cc(C(=O)NCC#N)c1NC(=O)c1cc(Cn2ncc(C(F)(F)F)n2)nn1-c1ncccc1Cl [Example 143]
pest or weed control at 100 g/ha [1]: 100% | pest or weed control at 100 g/ha [2]: 100% | pest or weed control at 100 g/ha [3]: 100% | chromatographic logP [4]: 2.97

CSC[C@H](C)NC(=O)c1cc(Cl)cc(C)c1NC(=O)c1cc(Cn2ncc(C(F)(F)F)n2)nn1-c1ncccc1Cl [Example 144]
pest or weed control at 100 g/ha [1]: 100% | pest or weed control at 100 g/ha [2]: 100% | pest or weed control at 100 g/ha [3]: 100% | chromatographic logP [4]: 3.74

CNC(=O)c1cc(Cl)cc(Cl)c1NC(=O)c1cc(Cn2ncc(C(F)(F)F)n2)nn1-c1ncccc1Cl [Example 146]
pest or weed control at 100 g/ha [1]: 100% | pest or weed control at 100 g/ha [2]: 100% | pest or weed control at 100 g/ha [3]: 100% | chromatographic logP [4]: 2.98

CC(C)NC(=O)c1cc(Cl)cc(Cl)c1NC(=O)c1cc(Cn2ncc(C(F)(F)F)n2)nn1-c1ncccc1Cl [Example 150]
pest or weed control at 100 g/ha [1]: 90% | pest or weed control at 100 g/ha [2]: 100% | pest or weed control at 100 g/ha [3]: 100% | chromatographic logP [4]: 3.41

Cc1cc(I)cc(C(N)=O)c1NC(=O)c1cc(Cn2ncc(C(F)(F)F)n2)nn1-c1ncccc1Cl [Example 156]
pest or weed control at 100 g/ha [1]: 100% | pest or weed control at 100 g/ha [2]: 100% | pest or weed control at 100 g/ha [3]: 100% | chromatographic logP [4]: 2.89

CNC(=O)c1cc(I)cc(C)c1NC(=O)c1cc(Cn2ncc(C(F)(F)F)n2)nn1-c1ncccc1Cl [Example 157]
pest or weed control at 100 g/ha [1]: 100% | pest or weed control at 100 g/ha [2]: 100% | pest or weed control at 100 g/ha [3]: 100% | chromatographic logP [4]: 3.26

Cc1cc(I)cc(C(=O)NCC#N)c1NC(=O)c1cc(Cn2ncc(C(F)(F)F)n2)nn1-c1ncccc1Cl [Example 165]
pest or weed control at 100 g/ha [1]: 100% | pest or weed control at 100 g/ha [2]: 100% | pest or weed control at 100 g/ha [3]: 100% | chromatographic logP [4]: 3.11

CSC[C@H](C)NC(=O)c1cc(I)cc(C)c1NC(=O)c1cc(Cn2ncc(C(F)(F)F)n2)nn1-c1ncccc1Cl [Example 166]
pest or weed control at 100 g/ha [1]: 100% | pest or weed control at 100 g/ha [2]: 100% | pest or weed control at 100 g/ha [3]: 100% | chromatographic logP [4]: 3.98

Cc1cc(F)cc(C(=O)NC(C)C)c1NC(=O)c1cc(Cn2ncc(C(F)(F)F)n2)nn1-c1ncccc1Cl [Example 170]
pest or weed control at 100 g/ha [1]: 100% | pest or weed control at 100 g/ha [2]: 100% | pest or weed control at 100 g/ha [3]: 100% | chromatographic logP [4]: 3.08

CNC(=O)c1cc(C#N)cc(C)c1NC(=O)c1cc(Cn2cc(C(F)(F)F)nn2)nn1-c1ncccc1Cl [Example 177]
pest or weed control at 100 g/ha [1]: 100% | pest or weed control at 100 g/ha [2]: 100% | pest or weed control at 100 g/ha [3]: 100% | chromatographic logP [4]: 2.28

Cc1cc(C#N)cc(C(=O)NC(C)C2CC2)c1NC(=O)c1cc(Cn2cc(C(F)(F)F)nn2)nn1-c1ncccc1Cl (stereo not drawn) [Example 178]
pest or weed control at 100 g/ha [1]: 100% | pest or weed control at 100 g/ha [2]: 100% | pest or weed control at 100 g/ha [3]: 100% | chromatographic logP [4]: 2.95
